Test results as given in patent publication US4920118A, “Aromatic 2-aminoalkyl-1,2-benzoisothiazol-3-(2H)one-1,1-dioxide and their use as anxiolytic and anti-hypertensive agents” (Merrell Dow Pharmaceuticals Inc., priority 1989, dated 1990).
Like-named read-outs stand apart in the source and are kept apart here. Blank lines part the entries; values can stand above or below the molecule they belong to.

Key:
5-HT1A recognition sites = target: T1, 5-HT1A recognition sites (Rattus norvegicus, UniProt P19327); test: 5-HT1A radioligand binding, rat frontal cortex homogenate; conditions: for Fold Increase (antilog of the difference of the test compound compared to buspirone): 5-HT1A binding potency relative to buspirone
T1 construct: male normotensive Sprague-Dawley rat frontal cortex was dissected, frozen in liquid nitrogen; from tissue; host or cells: frontal cortex of male normotensive Sprague-Dawley rats, washed homogenate
T1 sequence (P19327 1-422): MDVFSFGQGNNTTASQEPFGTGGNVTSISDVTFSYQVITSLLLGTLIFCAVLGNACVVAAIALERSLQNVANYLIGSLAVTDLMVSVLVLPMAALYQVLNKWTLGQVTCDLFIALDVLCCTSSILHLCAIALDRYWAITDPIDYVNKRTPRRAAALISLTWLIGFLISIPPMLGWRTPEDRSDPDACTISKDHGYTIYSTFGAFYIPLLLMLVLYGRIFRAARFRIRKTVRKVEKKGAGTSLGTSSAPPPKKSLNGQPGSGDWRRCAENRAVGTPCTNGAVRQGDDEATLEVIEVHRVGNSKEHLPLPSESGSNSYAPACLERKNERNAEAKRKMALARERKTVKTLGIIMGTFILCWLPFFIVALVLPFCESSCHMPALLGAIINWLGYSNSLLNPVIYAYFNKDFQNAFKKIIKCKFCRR
Description: Radioligand binding studies of the 5-HT1A recognition sites were carried out as follows: male normotensive Sprague-Dawley rat frontal cortex was dissected, frozen in liquid nitrogen and stored at -20° C. until needed. Tissues from 4-8 rats were pooled and homogenised in 70 vol Tris-HCl buffer (50 mM, pH 7.7), using a kinematica Polytron (setting 2/3 max speed, 20 sec). The homogenate was centrifuged (36500×g for 10 min), the pellet re-homogenised in the same volume of buffer and the process repeated two more times. Between the second and third centrifugations the tissue homogenate was incubated at 37° C. for 10 min. The final pellet was suspended in the same volume of Tris buffer containing 10M pargyline, 5.7 mM CaCl2 and 0.1% ascorbic acid. This suspension was incubated for 10 min at 37° C. and then stored on ice until used in the binding assay.
Tissue homogenate (0.7 ml), radioactive ligand (0.1 ml) and the appropriate concentration of test compound (0.1 ml), together with buffer to a final volume of 1 ml were incubated at 37° C. for 15 min. Incubations were terminated by rapid filtration through Whatman GF/B filters followed by three 5 ml washes with ice-cold Tris-HCl buffer (50 mM, pH 7.0). Radioactivity was measured after extraction into Aquasol-Z (NEN) at an efficiency of 45-50%. The radioligand used to label the 5-HT1A recognition sites and its concentration is [^3 H]-8-hydroxy-2-(di-n-propylamino)-tetralin, ([^3 H]-8-OH-DPAT), 1 mM.

[1] = test system: anesthetized normotensive Sprague-Dawley rats; test: Blood pressure and heart rate in anesthetized normotensive rats; format: in vivo, rat
Description: Male, normotensive Sprague-Dawley rats weighing 250-350 g (supplied by Charles River, France) were anesthetized with pentobarbitone sodium, 60 mg/kg, i.p., plus 15 mg/kg s.c. Blood pressure was recorded either from the left common carotid artery or from a femoral artery by means of a Statham pressure transducer (Type P23 AA) and heart rate was recorded from the electrocardiogram using a Beckman cardiotachometer coupler (Type 9757 B). […] A femoral vein was cannulated for the intravenous injection of drugs. After completion of all operative procedures, heparin 500 U was injected intravenously.
The compounds of Example I, 2-[4-[(2,3-dihydro-1,4-benzodioxine-2-yl)methylamino]butyl]-1,2-benzoisothiazol-3(2H)one-1,1-dioxide was administered s.c. as a saline solution in a volume of 1 ml/kg body weight. The following changes in blood pressure (B.P.) and heart rate (H.R.) were observed.

[2] = test system: conscious spontaneously hypertensive rats; test: Arterial blood pressure and heart rate in conscious spontaneously hypertensive rats; format: in vivo, rat; conditions: for Δ BP / Δ HR: conscious SHR
Description: In a separate experiment arterial blood pressure and heart rate were measured directly in conscious male, spontaneously hypertensive rats weighing 250-350 g (Charles River, France). The same test compound was administered, either s.c. or orally, as a saline solution of 1 ml/kg body weight in the doses shown below.

[3] = [3H]-8-OH-DPAT, rat frontal cortex, mean ± S.E.M. of 3 independent experiments, read-out: 5-HT1A Binding Affinity Rat Brain Cortex (pIC50) (converted)

- Fold Increase (antilog of the difference of the test compound compared to buspirone) (5-HT1A recognition sites): 66
- IC50 (5-HT1A recognition sites; [3]): 0.457 nM
Compound: O=C1c2ccccc2S(=O)(=O)N1CCCCNCC1COc2ccccc2O1 (stereo not drawn) [Example I, 2-[4-[(2,3-Dihydro-1,4-benzodioxin-2-yl)methylamino]butyl]-1,2-benzoisothiazol-3(2H)one-1,1-dioxide]
- Effect on blood pressure and heart rate (in words) [1]: effectively lowers the blood pressure and heart rate
- Δ BP ([1]; 25 μg/kg s.c.): -35 mmHg
- Δ HR ([1]; 25 μg/kg s.c.): -80 beats/min
- Δ BP ([1]; 500 μg/kg s.c.): -50 mmHg
- Δ HR ([1]; 500 μg/kg s.c.): -90 beats/min
- Δ BP ([2]; 100 μg/kg s.c.): -20 mmHg
- Δ HR ([2]; 100 μg/kg s.c.): +80 beats/min
- Δ BP ([2]; 200 μg/kg s.c.): -65 mmHg
- Δ HR ([2]; 200 μg/kg s.c.): +100 beats/min
- Δ BP ([2]; 500 μg/kg s.c.): -75 mmHg
- Δ HR ([2]; 500 μg/kg s.c.): +120 beats/min
- Δ BP ([2]; 1 mg/kg per os): -25 mmHg
- Δ HR ([2]; 1 mg/kg per os): +100 beats/min
- Δ BP ([2]; 5 mg/kg per os): -45 mmHg
- Δ HR ([2]; 5 mg/kg per os): +100 beats/min
- Effect on blood pressure and heart rate (in words) ([2]; conscious spontaneously hypertensive rats): lowers the blood pressure with reflex tachycardia

Compound: O=C1c2ccccc2S(=O)(=O)N1CCCCN1CCc2c([nH]c3ccccc23)C1 [Example II, 2-[4-(2-[1,2,3,4]-tetrahydro-β-carbolinyl)butyl]-1,2-benzoisothiazol-3(2H)one-1,1-dioxide]
- IC50 (5-HT1A recognition sites): 6.92 nM
- Fold Increase (antilog of the difference of the test compound compared to buspirone) (5-HT1A recognition sites): 4.4

- Fold Increase (antilog of the difference of the test compound compared to buspirone) (5-HT1A recognition sites): 10
- IC50 (5-HT1A recognition sites; [3]): 3.02 nM
Compound: COc1cccc2c1CC(NCCCCN1C(=O)c3ccccc3S1(=O)=O)CC2 (stereo not drawn) [Example III, 2-[4-[8-Methoxytetralin-2-amino]butyl]1,2-benzoisothiazol3(2H)one-1,1-dioxide]

- Fold Increase (antilog of the difference of the test compound compared to buspirone) (5-HT1A recognition sites): 3.2
- IC50 (5-HT1A recognition sites; [3]): 9.33 nM
Compound: O=C1c2ccccc2S(=O)(=O)N1CCCCNCC1COc2ccccc2N1 (stereo not drawn) [Example V, 2-[4-[(2,3-Dihydro-1,4-benzoxazin-3-yl)methylamino]butyl]-1,2-benzoisothiazol-3-(2H)one-1,1-dioxide]
